The values below are quoted from earlier work in patent US20120177729A1, “SUSTAINED RELEASE COMPOSITION OF RANOLAZINE” (Lupin Limited, priority 2009, published 2012).

For series [1] the following is noted: in vivo.

As to `COc1ccccc1OCC(O)CN1CCN(CC(=O)Nc2c(C)cccc2C)CC1` (racemic) [Ranolazine, (±)-N-(2,6-dimethylphenyl)-4-[2-hydroxy-3-(2-methoxyphenoxy)propyl]-1-piperazine-acetamide], the Plasma half-life entry in series [1] is reported as “relatively short”. Further, the Solubility result (low pH that occurs in the stomach) was “relatively high”. Moreover, the “Solubility in aqueous solutions” value (pH above about 6.5) was “relatively insoluble”.
